The test concerns L1210 leukemia ip in BDF1 mice, survival T/C. Nature of the test: NCI In Vivo Anticancer Drug Screen. Data for tumor model L1210 Leukemia (intraperitoneal) in B6D2F1 (BDF1) mice. To be noted: endpoint: mean survival time, higher = longer survival. The procedure, abridged: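 Value reflects the ratio of survival in compound-treated mice to survival in vehicle-treated controls, with both groups carrying the same transplanted tumor.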

Where [1] appears, read: dose: 100.0 mg/kg/injection, schedule: Q04DX003 (ip), vehicle: saline with Tween-80.
[2] abbreviates: dose: 50.0 mg/kg/injection, schedule: Q01DX009 (ip), vehicle: saline with Tween-80.
[3] abbreviates: dose: 100.0 mg/kg/injection, schedule: Q01DX001 (ip), vehicle: saline with Tween-80.
Where [4] appears, read: dose: 100.0 mg/kg/injection, schedule: Q01DX009 (ip), vehicle: saline with Tween-80.
Setting [5] is: dose: 100.0 mg/kg/injection, schedule: Q01DX009 (ip), vehicle: saline.
The mark [6] stands for this setting: dose: 100.0 mg/kg/injection, schedule: Q04DX003 (ip), vehicle: saline.
[7] abbreviates: dose: 200.0 mg/kg/injection, schedule: Q01DX009 (ip), vehicle: saline.
[8] abbreviates: dose: 200.0 mg/kg/injection, schedule: Q04DX003 (ip), vehicle: saline.
Setting [9] is: dose: 100.0 mg/kg/injection, schedule: Q01DX001 (ip), vehicle: saline.

The structures appear in SMILES notation. Values joined by “and” are separate entries in the source; they are usually repeats but may differ in a detail not shown here. Equal entries are not always repeated. Inconclusive results and toxic doses are left out.

Regarding `O=C(Nc1ccc(C(=O)Nc2ccc(C3=NCCN3)cc2)cc1)Nc1ccc(C2=NCCN2)cc1`, the T/C reads like this: (dose: 1.88 mg/kg/injection, schedule: Q01DX Z (ip), vehicle: saline) 117 % of control; (dose: 3.75 mg/kg/injection, schedule: Q01DX Z (ip), vehicle: saline) 117 % of control; (dose: 7.5 mg/kg/injection, schedule: Q01DX Z (ip), vehicle: saline) 123 % of control; (dose: 30.0 mg/kg/injection, schedule: Q01DX Z (ip), vehicle: carboxymethylcellulose (CMC)) 166 % of control; (dose: 30.0 mg/kg/injection, schedule: Q01DX Z (sc), vehicle: saline) 97 % of control; (dose: 44.0 mg/kg/injection, schedule: Q01DX007 (oral), vehicle: carboxymethylcellulose (CMC)) 103 % of control. For the same molecule, the T/C is 218 % of control (dose: 60.0 mg/kg/injection, schedule: Q01DX Z (ip), vehicle: carboxymethylcellulose (CMC)); 109 % of control (dose: 60.0 mg/kg/injection, schedule: Q01DX Z (sc), vehicle: saline); 109 % of control (dose: 62.5 mg/kg/injection, schedule: Q01DX010 (oral), vehicle: saline); 101 % of control (dose: 88.0 mg/kg/injection, schedule: Q01DX007 (oral), vehicle: carboxymethylcellulose (CMC)); 192 % of control (dose: 120.0 mg/kg/injection, schedule: Q01DX Z (ip), vehicle: carboxymethylcellulose (CMC)); 120 % of control (dose: 120.0 mg/kg/injection, schedule: Q01DX Z (sc), vehicle: saline). In addition, the T/C (dose: 125.0 mg/kg/injection, schedule: Q01DX010 (oral), vehicle: saline) is 108 % of control; the T/C (dose: 175.0 mg/kg/injection, schedule: Q01DX007 (oral), vehicle: carboxymethylcellulose (CMC)) was 101 % of control; the T/C (dose: 240.0 mg/kg/injection, schedule: Q01DX Z (sc), vehicle: saline) was 154 % of control; the T/C (dose: 250.0 mg/kg/injection, schedule: Q01DX010 (oral), vehicle: saline) was 106 % of control; the T/C (dose: 350.0 mg/kg/injection, schedule: Q01DX007 (oral), vehicle: carboxymethylcellulose (CMC)) is 100 % of control; the T/C (dose: 500.0 mg/kg/injection, schedule: Q01DX010 (oral), vehicle: saline) was 106 % of control. Further, the T/C (dose: 700.0 mg/kg/injection, schedule: Q01DX007 (oral), vehicle: carboxymethylcellulose (CMC)) is 100 % of control.

As for `CCN(CC)C(=S)SCc1ccccc1OC(=O)NC`, the T/C runs as follows: (dose: 75.0 mg/kg/injection, schedule: Q01DX001 (ip), vehicle: saline) 101 % of control; (dose: 150.0 mg/kg/injection, schedule: Q01DX001 (ip), vehicle: saline) 98 % of control.

As to `CC(C)(C)N(Cc1ccccc1)Cc1ccccc1`, the T/C reads like this: under setting [1], 96 % of control; (dose: 200.0 mg/kg/injection, schedule: Q04DX003 (ip), vehicle: saline with Tween-80) 98 % of control; (dose: 400.0 mg/kg/injection, schedule: Q04DX003 (ip), vehicle: saline with Tween-80) 96 % of control.

Turning to `O=C1c2ccccc2C(=O)N1C1CCC(O)CC1` (centres undefined), the T/C was 101 % of control (dose: 25.0 mg/kg/injection, schedule: Q01DX009 (ip), vehicle: saline with Tween-80); 107 % of control (dose: 25.0 mg/kg/injection, schedule: Q04DX003 (ip), vehicle: saline with Tween-80); 93 % of control under setting [2]; 102 % of control (dose: 50.0 mg/kg/injection, schedule: Q04DX003 (ip), vehicle: saline with Tween-80); 103 % of control under setting [3]; 103 % of control under setting [4]. Also, the T/C under setting [1] is 102 % of control.

Turning to `Cc1cccc(CN)n1`, the T/C is 98 % of control (dose: 50.0 mg/kg/injection, schedule: Q01DX009 (ip), vehicle: saline); 98 % of control under setting [5]; 104 % of control under setting [6]; 97 % of control under setting [7]; 104 % of control under setting [8].

On to `CCOC(=O)C[P+](c1ccc(C)cc1)(c1ccc(C)cc1)c1ccc(C)cc1`, for which the T/C (dose: 15.0 mg/kg/injection, schedule: Q01DX001 (ip), vehicle: carboxymethylcellulose (CMC)) is 86 % of control.

As to `CC(NC(=O)C(C)(C)C)c1ccc(-c2ccccc2)cc1` (centres undefined), the T/C is 98 % of control (dose: 100.0 mg/kg/injection, schedule: Q04DX002 (ip), vehicle: saline with Tween-80); 95 % of control (dose: 200.0 mg/kg/injection, schedule: Q04DX002 (ip), vehicle: saline with Tween-80); 98 % of control (dose: 400.0 mg/kg/injection, schedule: Q04DX002 (ip), vehicle: saline with Tween-80).

`Cc1ccc(C(=O)CCCCCCCCC(=O)c2ccc(C)cc2)cc1`: the T/C reads like this: under setting [2], 97 % of control; under setting [4], 89 % of control; (dose: 200.0 mg/kg/injection, schedule: Q01DX009 (ip), vehicle: saline with Tween-80) 89 % of control.

For the molecule `CC(=O)OCC1CCC(NC(=O)NCCF)CC1` (centres undefined), the T/C (dose: 50.0 mg/kg/injection, schedule: Q01DX001 (ip), vehicle: saline with Tween-80) was 101 % of control; the T/C under setting [3] was 106 % of control; the T/C (dose: 200.0 mg/kg/injection, schedule: Q01DX001 (ip), vehicle: saline with Tween-80) was 95 % of control.

In the case of `COCCCNP(=O)(OC(C)C)OC(C)C`, the T/C (dose: 100.0 mg/kg/injection, schedule: Q01DX001 (ip), vehicle: acetone) is 109 % of control; the T/C (dose: 100.0 mg/kg/injection, schedule: Q04DX003 (ip), vehicle: acetone) was 97 % of control; the T/C (dose: 200.0 mg/kg/injection, schedule: Q01DX001 (ip), vehicle: acetone) is 98 % of control; the T/C (dose: 200.0 mg/kg/injection, schedule: Q04DX003 (ip), vehicle: acetone) is 95 % of control; the T/C (dose: 400.0 mg/kg/injection, schedule: Q01DX001 (ip), vehicle: acetone) is 110 % of control; the T/C (dose: 400.0 mg/kg/injection, schedule: Q04DX003 (ip), vehicle: acetone) was 95 % of control.

For `Cc1ccc(S(=O)(=O)N(CCCc2c(-c3ccccc3)nc(N)[nH]c2=O)c2ccccc2)cc1`, the T/C runs as follows: (dose: 100.0 mg/kg/injection, schedule: Q01DX009 (ip), vehicle: gum acacia) 101 % of control; (dose: 200.0 mg/kg/injection, schedule: Q01DX009 (ip), vehicle: gum acacia) 100 % of control; (dose: 400.0 mg/kg/injection, schedule: Q01DX009 (ip), vehicle: gum acacia) 99 % of control.

For `Cc1ccc(NC(=S)N(C)C)cc1C`, the T/C is, setting by setting: (dose: 100.0 mg/kg/injection, schedule: Q01DX009 (ip), vehicle: Klucel (hydroxypropylcellulose) (HPC)) 95 % of control; (dose: 200.0 mg/kg/injection, schedule: Q01DX009 (ip), vehicle: Klucel (hydroxypropylcellulose) (HPC)) 101 % of control; (dose: 400.0 mg/kg/injection, schedule: Q01DX009 (ip), vehicle: Klucel (hydroxypropylcellulose) (HPC)) 104 % of control.

With `CC(=O)SCC(CSC(C)=O)c1nncc2ccccc12`, the T/C under setting [9] was 95 % of control.

`CCCCCCc1cc(N=Nc2ccc(S(=O)(=O)Nc3cc(C)nc(C)n3)cc2)c(O)cc1O`: the T/C reads like this: (dose: 100.0 mg/kg/injection, schedule: Q01DX001 (ip), vehicle: carboxymethylcellulose (CMC)) 101 % of control; (dose: 200.0 mg/kg/injection, schedule: Q01DX001 (ip), vehicle: carboxymethylcellulose (CMC)) 95 % of control; (dose: 400.0 mg/kg/injection, schedule: Q01DX001 (ip), vehicle: carboxymethylcellulose (CMC)) 95 % of control.

In the case of `N#CCCS(=O)(=O)O`, the T/C was 100 % of control under setting [9]; 98 % of control and 122 % of control under setting [5]; 97 % of control (dose: 100.0 mg/kg/injection, schedule: Q04DX002 (ip), vehicle: saline); 95 % of control under setting [6]; 97 % of control (dose: 200.0 mg/kg/injection, schedule: Q01DX001 (ip), vehicle: saline); 98 % of control and 108 % of control under setting [7]. In addition, the T/C is, setting by setting: (dose: 200.0 mg/kg/injection, schedule: Q04DX002 (ip), vehicle: saline) 106 % of control and 90 % of control; under setting [8], 103 % of control; (dose: 400.0 mg/kg/injection, schedule: Q01DX001 (ip), vehicle: saline) 105 % of control; (dose: 400.0 mg/kg/injection, schedule: Q01DX009 (ip), vehicle: saline) 102 % of control and 108 % of control; (dose: 400.0 mg/kg/injection, schedule: Q04DX002 (ip), vehicle: saline) 87 % of control and 92 % of control; (dose: 400.0 mg/kg/injection, schedule: Q04DX003 (ip), vehicle: saline) 97 % of control.

These data come from PubChem BioAssay AID248 (DTP/NCI, 2004).
